System: B. burgdorferi B31
Test: RNA-Seq gene expression profile of B. burgdorferi persisters that survived antibiotic treatment, compared with drug free control
Type: cell-based, Borrelia burgdorferi
Experimental: RNA Sequencing (RNA-Seq) was performed to determine the gene expression profile of B. burgdorferi persisters that survived antibiotic treatment using next generation sequencing to shed light on the mechanisms of B. burgdorferi persistence. B. burgdorferi B31 cultures were grown for 5 days to 1×10^7 spirochetes/ml in BSK-H medium followed by treatment with 50 μg/ml doxycycline or 50 μg/ml amoxicillin for 6 days. Triplicate biological samples were used for each group. The total RNA was extracted and ribosomal RNA was removed prior to preparation of cDNA libraries for Illumina sequencing. […] The RNA-Seq data was analyzed by BLAST analysis and mapped to KEGG pathways.

CC1(C)S[C@@H]2[C@H](NC(=O)[C@H](N)c3ccc(O)cc3)C(=O)N2[C@H]1C(=O)O [Amo]
25214: Expression predicted RNA antisense: tRNA-Gln-1 BB_0786
21: Expression rplM BB_0339 (50S ribosomal protein L13)
17: Expression rplQ BB_0503 (50S ribosomal protein L17)
33897: Expression predicted RNA antisense: rpsM
29768: Expression predicted RNA antisense: BB_0465
5: Expression BB_H32 (antigen P35) | Expression flgB BB_0294 (flagellar basal body rod protein FlgB) | Expression BB_Q89 (gene BB_Q89, lipoprotein)
102443: Expression predicted RNA antisense: ospA ospB
64256: Expression predicted RNA antisense: BB_0034
2: Expression rpsQ BB_0487 (30S ribosomal protein S17) | Expression BB_H33 (adenine deaminase) | Expression BB_U02 (gene BB_U02, hypothetical protein)
140114: Expression predicted RNA antisense: lp6.6
73: Expression BB_0147 (flagellin)
1: Expression BB_0090 (V-type ATP synthase subunit K) | Expression BB_A21 (gene BB_A21, PF-49 protein) | Expression BB_L30 (gene BB_L30, hypothetical protein) | Expression BB_N33 (gene BB_N33, PF-49 protein)
3039: Expression 23S_rrlB BB_r04 (23S ribosomal RNA)
1187: Expression BB_t25 (Gly tRNA)
34: Expression rpsU BB_0256 (30S ribosomal protein S21)
96: Expression BB_0582 (carboxypeptidase)
7: Expression BB_t20 (Ser tRNA)
145: Expression BB_0262 (M23 peptidase domain-containing protein)
249: Expression murB BB_0598 (UDP-N-acetylenolpyruvoylglucosamine reductase)
23: Expression rplI BB_0112 (50S ribosomal protein L9)
176: Expression smpB BB_0033 (SsrA-binding protein)
52: Expression rpmE BB_0229 (50S ribosomal protein L31)
0: Expression 5S_rrlB BB_r03 (5S ribosomal RNA) | Expression rpmC BB_0486 (50S ribosomal protein L29) | Expression tRNA-Ala-1 BB_t05 (Ala tRNA) | Expression BB_t21 (Arg tRNA) | Expression tRNA-Asp-1 BB_t12 (Asp tRNA) | Expression bdrK BB_M34 (BdrK) | Expression bdrR BB_N27 (BdrR protein) | Expression erpK BB_M38 (ErpK protein) | Expression tRNA-Gln-1 BB_t18 (Gln tRNA) | Expression BB_t23 (Lys tRNA) | Expression BB_t28 (Met tRNA) | Expression BB_M33 (PF-49 protein) | Expression BB_P33 (PF-49 protein) | Expression BB_t30 (Phe tRNA) | Expression BB_F03 (RepU) | Expression tRNA-Ser-3 BB_t06 (Ser tRNA) | Expression BB_0287 (flagellar protein FlbA) | Expression BB_0138 (gene BB_0138, hypothetical protein) | Expression BB_0305 (gene BB_0305, hypothetical protein) | Expression BB_E09 (gene BB_E09, protein p23) | Expression BB_E16 (gene BB_E16, hypothetical protein) | Expression BB_E17 (gene BB_E17, hypothetical protein) | Expression BB_E18 (gene BB_E18, hypothetical protein) | Expression BB_E19 (gene BB_E19, hypothetical protein) | Expression BB_E20 (gene BB_E20, hypothetical protein) | Expression BB_E21 (gene BB_E21, hypothetical protein) | Expression BB_E22 (gene BB_E22, pyrazinamidase/nicotinamidase PncA) | Expression BB_E31 (gene BB_E31, antigen, P35, putative) | Expression BB_F01 (gene BB_F01, hypothetical protein) | Expression BB_F02 (gene BB_F02, hypothetical protein) | Expression BB_F06 (gene BB_F06, hypothetical protein) | Expression BB_F08 (gene BB_F08, hypothetical protein) | Expression BB_F14 (gene BB_F14, hypothetical protein) | Expression BB_F17 (gene BB_F17, putative transmembrane protein) | Expression BB_F20 (gene BB_F20, BBF20) | Expression BB_F23 (gene BB_F23, PF49) | Expression BB_F24 (gene BB_F24, PF32) | Expression BB_F25 (gene BB_F25, hypothetical protein) | Expression BB_F26 (gene BB_F26, hypothetical protein) | Expression BB_F0034 (gene BB_F0034, hypothetical protein) | Expression BB_F0039 (gene BB_F0039, hypothetical protein) | Expression BB_F0040 (gene BB_F0040, hypothetical protein) | Expression BB_F0041 (gene BB_F0041, outer surface protein VlsE1) | Expression BB_I01 (gene BB_I01, hypothetical protein) | Expression BB_I02 (gene BB_I02, hypothetical protein) | Expression BB_I06 (gene BB_I06, MTA/SAH nucleosidase) | Expression BB_I12 (gene BB_I12, hypothetical protein) | Expression BB_I15 (gene BB_I15, virulence associated lipoprotein) | Expression BB_I18 (gene BB_I18, hypothetical protein) | Expression BB_I19 (gene BB_I19, hypothetical protein) | Expression BB_I20 (gene BB_I20, hypothetical protein) | Expression BB_I21 (gene BB_I21, PF-32 protein) | Expression BB_I22 (gene BB_I22, PF-49 protein) | Expression BB_I26 (gene BB_I26, multidrug-efflux transporter) | Expression BB_I29 (gene BB_I29, virulence associated lipoprotein) | Expression BB_I34 (gene BB_I34, virulence associated lipoprotein) | Expression BB_I36 (gene BB_I36, antigen P35) | Expression BB_I38 (gene BB_I38, surface antigen) | Expression BB_I41 (gene BB_I41, hypothetical protein) | Expression BB_I42 (gene BB_I42, outer membrane protein) | Expression BB_J42 (gene BB_J42, hypothetical protein) | Expression BB_J0058 (gene BB_J0058, hypothetical protein) | Expression BB_K01 (gene BB_K01, lipoprotein) | Expression BB_K07 (gene BB_K07, lipoprotein) | Expression BB_K09 (gene BB_K09, hypothetical protein) | Expression BB_K13 (gene BB_K13, hypothetical protein) | Expression BB_K15 (gene BB_K15, antigen P35) | Expression BB_K17 (gene BB_K17, adenine deaminase) | Expression BB_K19 (gene BB_K19, lipoprotein) | Expression BB_K21 (gene BB_K21, PF-32 protein) | Expression BB_K22 (gene BB_K22, hypothetical protein) | Expression BB_K23 (gene BB_K23, hypothetical protein) | Expression BB_K24 (gene BB_K24, PF-49 protein) | Expression BB_K32 (gene BB_K32, fibronectin-binding protein) | Expression BB_K33 (gene BB_K33, hypothetical protein) | Expression BB_K34 (gene BB_K34, hypothetical protein) | Expression BB_K35 (gene BB_K35, hypothetical protein) | Expression BB_K40 (gene BB_K40, hypothetical protein) | Expression BB_K41 (gene BB_K41, hypothetical protein) | Expression BB_K42 (gene BB_K42, hypothetical protein) | Expression BB_K45 (gene BB_K45, immunogenic protein P37) | Expression BB_K47 (gene BB_K47, hypothetical protein) | Expression BB_K48 (gene BB_K48, immunogenic protein P37) | Expression BB_K49 (gene BB_K49, hypothetical protein) | Expression BB_K50 (gene BB_K50, immunogenic protein P37) | Expression BB_K52 (gene BB_K52, lipoprotein) | Expression BB_K53 (gene BB_K53, outer membrane protein) | Expression BB_K54 (gene BB_K54, hypothetical protein) | Expression BB_K0058 (gene BB_K0058, hypothetical protein) | Expression BB_K0059 (gene BB_K0059, hypothetical protein) | Expression BB_L15 (gene BB_L15, hypothetical protein) | Expression BB_L16 (gene BB_L16, hypothetical protein) | Expression BB_L17 (gene BB_L17, hypothetical protein) | Expression BB_L18 (gene BB_L18, hypothetical protein) | Expression BB_L21 (gene BB_L21, hypothetical protein) | Expression BB_L22 (gene BB_L22, hypothetical protein) | Expression BB_L29 (gene BB_L29, hypothetical protein) | Expression BB_L31 (gene BB_L31, hypothetical protein) | Expression BB_L32 (gene BB_L32, PF-32 protein) | Expression BB_N08 (gene BB_N08, hypothetical protein) | Expression BB_Q03 (gene BB_Q03, outer membrane protein) | Expression BB_Q05 (gene BB_Q05, antigen, P35) | Expression BB_Q07 (gene BB_Q07, plasmid partition protein) | Expression BB_Q08 (gene BB_Q08, PF-32 protein) | Expression BB_Q09 (gene BB_Q09, hypothetical protein) | Expression BB_Q40 (gene BB_Q40, PF-32 protein) | Expression BB_Q48 (gene BB_Q48, hypothetical protein) | Expression BB_Q49 (gene BB_Q49, hypothetical protein) | Expression BB_Q67 (gene BB_Q67, adenine specific DNA methyltransferase) | Expression BB_T01 (gene BB_T01, hypothetical protein) | Expression BB_T02 (gene BB_T02, hypothetical protein) | Expression BB_T03 (gene BB_T03, hypothetical protein) | Expression BB_T04 (gene BB_T04, hypothetical protein) | Expression BB_T06 (gene BB_T06, Sua5/YciO/YrdC/YwlC family protein) | Expression BB_T07 (gene BB_T07, outer membrane protein) | Expression BB_U01 (gene BB_U01, hypothetical protein) | Expression BB_U04 (gene BB_U04, protein BBC01)
35398: Expression predicted RNA antisense: BB_0631
177: Expression BB_0559 (PTS system glucose-specific transporter subunit IIA)
10: Expression BB_H06 (complement regulator-acquiring surface protein)
2060: Expression lnt BB_0237 (apolipoprotein N-acyltransferase)
26: Expression tRNA-Asn-1 BB_t11 (Asn tRNA)
14: Expression rpsH BB_0492 (30S ribosomal protein S8) | Expression rpmJ BB_0499 (50S ribosomal protein L36)
15: Expression bdrH BB_R27 (BdrH) | Expression tRNA-Leu-4 BB_t17 (Leu tRNA) | Expression BB_P32 (PF-32 protein)
6: Expression rplX BB_0489 (50S ribosomal protein L24) | Expression fliL BB_0279 (flagellar basal body-associated protein FliL)
39487: Expression predicted RNA antisense: BB_0559
48: Expression BB_0087 (L-lactate dehydrogenase)
28: Expression rpmF BB_0703 (50S ribosomal protein L32)
4: Expression BB_0321 (gene BB_0321, hypothetical protein)
19231: Expression predicted RNA antisense: napA
44966: Expression predicted RNA antisense: BB_B22
39823: Expression predicted RNA antisense: BB_0269
9453: Expression BB_A64 (P35 antigen)
115: Expression lp6.6 BB_A62 (6.6 kDa lipoprotein)
3: Expression thyX BB_A76 (FAD-dependent thymidylate synthase)
70553: Expression predicted RNA antisense: BB_A59
66: Expression rpsI BB_0338 (30S ribosomal protein S9)
11: Expression BB_t33 (Thr tRNA)
71642: Expression predicted RNA antisense: BB_0147
233: Expression cheR BB_0040 (chemotaxis protein methyltransferase)
3005: Expression 23S_rrlA BB_r02 (23S ribosomal RNA)
267: Expression cdd BB_0618 (cytidine deaminase)
45574: Expression predicted RNA antisense: fusA
